Measurements: patent US11617726B2, “Method for preventing, treating, or ameliorating a microbial infection” (priority 2018, dated 2023)

Tested on: Acinetobacter baumannii isolates
Assay: Antimicrobial susceptibility test, disc diffusion method (CLSI M100-S24)
Type: cell-based
Set-up: key to Inhibition zone: “NZ” indicated that no zone of inhibition was observed
Conditions: for Inhibition zone: disc diffusion; for susceptibility category: IP disc
Experimental: A total of 33 non-duplicate, non-consecutive clinical isolates of Multi-Drug Resistant (MDR) Acinetobacter baumannii were collected from burn wards (“AB1-AB33”). Acinetobacter baumannii ATCC BAA 747 and Pseudomonas aeruginosa ATCC 27853 were used as control strains. The isolates were stored at −80° C. in trypticase soy broth containing 20% glycerol.
Antimicrobial susceptibility tests of the collection of isolates were conducted using the disc diffusion method. The experiment was performed according to the recommendations and guidelines of Clinical Laboratory Standard Institutes (CLSI M100-S24; 2014). Clinical and Laboratory Standards Institute (CLSI), “Performance standards for antimicrobial susceptibility testing; twenty-fourth informational supplement,” Document M100-S24, Clinical and Laboratory Standards Institute (CLSI), Wayne, Pa., USA, 2014.
A panel of commercial antibiotic discs (Amoxicillin (AMX), Amoxicillin/clavulanic acid (AMX/CLA), Piperacillin (PIP), Piperacillin/Tazobactam (PIP/TAZ), Ceftazidime (CAZ), Cefotaxime (CTX), Cefepime (FEP), Cefoxitin (FOX), Aztreonam (ATM), Imipenem (IP), Gentamicin (GEN), Amikacin (AK), Neomycin (NEO), Levofloxacin (LEV), Chloramphenicol (CHL), Tetracycline (TET), sulfamethoxazole/trimethoprim (SUL/TRI) was used for susceptibility testing. All commercial antibiotic discs were purchased from BBL (Becton Dickinson, USA).
Forty grams of Mueller-Hinton Agar (MHA) were suspended in 1 Liter distilled water and then boiled to dissolve the powder completely. The medium was sterilized by autoclaving at 121° C. for 15 min. After autoclaving, the medium was cooled to 45° C. and 25 mL of molten agar media was poured into sterile Petri dishes (90 mm diameter) to give a depth of about 4 mm. The surface of the agar was dried to remove excess moisture before use. The plates were stored at 4-8° C. in sealed plastic bags if not used immediately.
The inoculum suspension was prepared by selecting three to five morphologically similar colonies from overnight growth (16-24 h of incubation) on blood agar medium. […] The suspension density was measured using a UV spectrophotometer calibrated with a 0.5 McFarland standard. The density of the suspension was adjusted to McFarland 0.5 by addition of saline or more microorganisms. The adjusted inoculum suspension was used within 60 min of preparation.
A sterile cotton swab was dipped into the bacterial suspension and the excess fluid was removed by turning the swab against the inside wall of the tube to avoid over-inoculation of plates. The inoculum was spread evenly over the entire surface of the agar plate by swabbing in three directions.
The predetermined panel of antimicrobial disks was applied firmly on the inoculated Mueller-Hinton agar surface within 15 min of inoculation of the plates by a disc dispenser device. A maximum of six disks were accommodated on a 90-mm circular plate.
Within 15 min of application of antimicrobial disks, the plates were inverted and incubated aerobically at 35-37° C. for 18-20 h.
After incubation, inhibition zones were measured at the point where no obvious growth is detected by the unaided eye when the plate is held about 30 cm from the eye. Inhibition zone diameters were measured to the nearest millimeter with a ruler. The plates were read from the back of the plate with reflected light against a dark background. Zone diameters were interpreted and categorized as susceptible “S”, intermediate “I”, or resistant “R” according to the CLSI clinical breakpoint tables (see Table 1 and Table 2).

Compound | Inhibition zone (isolate AB1) | Inhibition zone (isolate AB2) | Inhibition zone (isolate AB3) | Inhibition zone (isolate AB4) | Inhibition zone (isolate AB5) [mm] | Inhibition zone (isolate AB6) [mm] | Inhibition zone (isolate AB7) | Inhibition zone (isolate AB8) | Inhibition zone (isolate AB9) | Inhibition zone (isolate AB10) | Inhibition zone (isolate AB11) | Inhibition zone (isolate AB12) [mm] | Inhibition zone (isolate AB13) | Inhibition zone (isolate AB14) | Inhibition zone (isolate AB15) | Inhibition zone (isolate AB16) | Inhibition zone (isolate AB17) [mm] | Inhibition zone (isolate AB18) | Inhibition zone (isolate AB19) | Inhibition zone (isolate AB20) | other results
NC[C@@H]1O[C@H](O[C@H]2[C@@H](O)[C@H](O[C@@H]3[C@@H](O)[C@H](N)C[C@H](N)[C@H]3O[C@H]3O[C@H](CN)[C@@H](O)[C@H](O)[C@H]3N)O[C@@H]2CO)[C@H](N)[C@@H](O)[C@@H]1O [NEO, Neomycin] | 23 mm | 20 mm | 22 mm | 27 mm | 10 | 14 | 12 mm | 11 mm | 20 mm | NZ | NZ | 15 | 9 mm | NZ | 13 mm | NZ | 20 | 15 mm | 13 mm | NZ | Inhibition zone (isolate AB21): 13 mm; Inhibition zone (isolate AB22): 7 mm; Inhibition zone (isolate AB23): 10 mm; Inhibition zone (isolate AB24): 14 mm; Inhibition zone (isolate AB25): 8 mm; Inhibition zone (isolate AB26): 20 mm; Inhibition zone (isolate AB27): 9 mm; Inhibition zone (isolate AB28): 15 mm; Inhibition zone (isolate AB29): 15 mm; Inhibition zone (isolate AB30): 15 mm; Inhibition zone (isolate AB31): 8 mm; Inhibition zone (isolate AB32): 10 mm; Inhibition zone (isolate AB33): 20 mm
Gentamicin | 24 mm | 20 mm | 24 mm | 22 mm | 15 | 26 | NZ | NZ | 21 mm | NZ | NZ | 12 | NZ | NZ | 20 mm | 18 mm | 24 | 17 mm | 20 mm | NZ | Inhibition zone (isolate AB21): 17 mm; Inhibition zone (isolate AB22): NZ; Inhibition zone (isolate AB23): NZ; Inhibition zone (isolate AB24): 19 mm; Inhibition zone (isolate AB25): 19 mm; Inhibition zone (isolate AB26): NZ; Inhibition zone (isolate AB27): 8 mm; Inhibition zone (isolate AB28): 20 mm; Inhibition zone (isolate AB29): 20 mm; Inhibition zone (isolate AB30): 20 mm; Inhibition zone (isolate AB31): 8 mm; Inhibition zone (isolate AB32): NZ; Inhibition zone (isolate AB33): 20 mm
C[C@@H](O)[C@H]1C(=O)N2C(C(=O)O)=C(SCCN=CN)C[C@H]12 [IP, Imipenem] | NZ | NZ | NZ | NZ | 8 | 12 | NZ | 7 mm | NZ | NZ | NZ | 11 | 9 mm | 15 mm | NZ | 34 mm | 15 | NZ | NZ | 15 mm | susceptibility category (isolate AB16): S (Sensitive ≥22); Inhibition zone (isolate AB21): NZ; Inhibition zone (isolate AB22): 15 mm; Inhibition zone (isolate AB23): 20 mm; Inhibition zone (isolate AB24): NZ; susceptibility category (isolate AB25): S (Sensitive ≥22); Inhibition zone (isolate AB25): 23 mm; susceptibility category (isolate AB26): S (Sensitive ≥22); Inhibition zone (isolate AB26): 22 mm; Inhibition zone (isolate AB27): 9 mm; Inhibition zone (isolate AB28): 8 mm; Inhibition zone (isolate AB29): 9 mm; Inhibition zone (isolate AB30): 9 mm; Inhibition zone (isolate AB31): 9 mm; Inhibition zone (isolate AB32): 18 mm; Inhibition zone (isolate AB33): NZ
